Laboratory results as given in patent US20070249545A1, “DIHYDROFOLATE REDUCTASE INHIBITION BY EPIGALLOCATECHIN GALLATE COMPOUNDS” (priority 2004, published 2007).

Columns and labels:
free rHDHFR = target: T1, free rHDHFR (Homo sapiens, UniProt P00374); assay: Binding of EGCG to free DHFR by quenching of enzyme fluorescence; conditions: read-out: dissociation constant
T1 sequence (P00374 1-187): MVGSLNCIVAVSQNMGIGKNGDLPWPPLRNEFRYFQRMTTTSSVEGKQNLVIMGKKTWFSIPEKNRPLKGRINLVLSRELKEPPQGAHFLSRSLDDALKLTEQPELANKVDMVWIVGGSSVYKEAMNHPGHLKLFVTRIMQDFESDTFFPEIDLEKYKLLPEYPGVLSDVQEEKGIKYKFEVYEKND
Description: The binding of EGCG to free DHFR was determined by following the decrease in enzyme fluorescence that occurs on formation of the enzyme-inhibitor complex. […] The binding of EGCG quenches this fluorescence. The data for the resulting titration curves were used for dissociation constant determinations.

chicken liver DHFR = target: T2, chicken liver DHFR (Gallus gallus, UniProt P00378); assay: Kinetic analysis of inhibition of chicken liver DHFR; format: biochemical
T2 construct: from tissue; host or cells: chicken liver
Description: The activity of DHFR was determined at 25° C. by following the decrease of NADPH and DHF by absorbance measurements at 340 nm (ε=11,800 M^−1 cm^−1) by using a Perkin-Elmer Lambda-2 spectrophotometer with cuvettes of 1.0 cm light-path.
Experiments were performed at pH 7.58 and 25° C. in a buffer containing 2-(N-morpholino)ethanesulfonic acid (MES, 25 mM), sodium acetate (25 mM), tris(hydroxymethyl)aminomethane (Tris 50 mM), and NaCl (100 mM). To prevent the oxidation of catechins, the reaction mixture contained 1 mM ascorbic acid. The pH of the reaction was measured before and after of the experiment. The assays were started by the addition of enzyme. In the absence of the enzyme, the rate of change of absorbance was negligible.
Lineweaver-Burk plots were made of the reaction of chicken liver DHFR (3.3 nM) with DHF and NADPH. For initial velocity inhibition experiments one substrate (NADPH) was held constant at saturating concentration (100 μM) while the concentration of the other substrate (DHF) and the inhibitor (EGCG) were varied (FIG. 3). […] This initial concentration of saturating NADPH was considered as constant after the consumption of 10 μM DHF by the addition of enzyme. Data were fitted by nonlinear regression to the integrated form (31) of the Michaelis equation. The fitting was performed by using Marquart's algorithm (32) implemented in the Sigma Plot 2.01 for Windows (33). […]

S. maltophilia DHFR = S. maltophilia DHFR (Stenotrophomonas maltophilia, UniProt B2FPG1); format: biochemical; conditions: S. maltophilia DHFR
Description: For the DHFR extraction, S. maltophilia strain number 1, was inoculated onto fresh agar 24 h before using. Then, liquid medium was inoculated with the strain and these broth cultures were incubated at 37° C. and shaken at 100 cycles per min. Solid medium was MacConkey agar (Oxoid Ltd., Basingstoke, England). Liquid medium was Brilliant Green Bile 2% broth (Oxoid). Bacteria were grown to mid-log phase, harvested by centrifugation (1,600 rpm 30 min) and washed twice in 50 mM phosphate buffer (pH 7.0) followed each time by a new centrifugation (1,600 rpm 5 min). Cell lysis, centrifugation, and dialysis were carried out between 4 and 8° C. Fast protein liquid chromatography (FPLC) purification steps were performed at room temperature. […] After centrifugation at 36,000 rpm for 30 min to remove cell debris, the supernatant was filtered. This supernatant was brought to 40% saturation with solid ammonium sulfate under continuous stirring. After 1 h the solution was centrifuged at 35,000 rpm for 30 min and the pellet discarded. Additional ammonium sulfate was added to the clear supernatant to give 90% saturation and stirred for 1 h. After centrifugation, the precipitates were suspended in 2 ml of buffer B (10 mM potassium phosphate buffer, pH 7.4, 2 mM β-mercaptoethanol). Concentrated enzyme (2 ml samples) was loaded onto a […] gel-filtration column (Sephacryl S-75 16/60 Hi-Prep, Amersham Pharmacia Biotech Europe GmbH, Barcelona, Spain), equilibrated with buffer B and eluted at 0.5 ml/min. The active fractions were concentrated and stored at −80° C. until used.
Initial velocity inhibition experiments were carried out for the inhibition studies of S. maltophilia with TMP and EGCG. One substrate (NADPH) was held constant at saturating concentration while the other substrate (DHF) and the inhibitor (TMP or EGCG) were varied. To prevent the oxidation of EGCG the reaction mixture contained 1 mM N-acetylcysteine (Sigma). For MTX inhibition the slow development of […] inhibition was determined by continuously monitoring the disappearance of NADPH and DHF after initiation of the reaction by the addition of DHFR. Reaction mixtures contained buffer, NADPH (100 μM), DHF (20 μM), and various concentrations of MTX. The extent of recovery of enzymatic activity following inhibition induced by preincubation with DHFR inhibitors was determined as follows. DHFR was preincubated for 30 min at 25° C. in the buffer mixture containing MTX, TMP or EGCG. An aliquot of the incubation mixture was then diluted 500-fold into a reaction mixture containing buffer mixture, NADPH (100 μM), and DHF (20 μM). Recovery of enzyme activity was followed by continuous monitoring at 340 nm.
Provided that the concentration of free inhibitor is not substantially altered by the formation of an enzyme-NADPH-inhibitor complex, the progress curve for the inhibition in the presence of saturating NADPH can be described by Eqn. 1 (as above): P=vst+(v0−vs)(1−exp(−kobst))/kobs • where vs, v0 and kobs represent the steady-state velocity, initial velocity and apparent first-order rate constant, respectively. The apparent first-order rate constant is related to the inhibitor concentration by Eqn. 2, where Ki denotes the dissociation constants for the initial binding of MTX to the enzyme-NADPH complex. [formula]

[1] = target: T3, recombinant human DHFR (rHDHFR) (Homo sapiens, UniProt P00374); assay: Inhibition of human DHFR by tea catechins; format: biochemical
T3 sequence (P00374 1-187): T1 sequence (P00374 1-187)

p16 [2] = assay: p16 methylation status in Jurkat T cells; format: cell-based, human; conditions: EGCG 20 μM, 7-days treatment
p16 [3] = assay: p16 methylation status in Caco-2 cells; conditions: EGCG 20 μM, 7-days treatment

Sequence of S. maltophilia DHFR (B2FPG1 entry or part of it): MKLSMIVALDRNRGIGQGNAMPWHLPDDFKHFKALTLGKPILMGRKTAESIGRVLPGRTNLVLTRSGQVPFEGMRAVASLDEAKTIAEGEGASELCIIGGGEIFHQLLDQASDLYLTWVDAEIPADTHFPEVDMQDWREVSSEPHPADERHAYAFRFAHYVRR
T2 sequence (P00378 whole entry): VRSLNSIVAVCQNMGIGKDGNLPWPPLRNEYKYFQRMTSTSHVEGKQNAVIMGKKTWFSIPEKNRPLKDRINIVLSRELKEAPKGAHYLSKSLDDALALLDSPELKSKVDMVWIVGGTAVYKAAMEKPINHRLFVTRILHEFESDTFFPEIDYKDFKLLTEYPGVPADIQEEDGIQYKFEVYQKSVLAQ

Substance: (−)-epigallocatechin gallate [EGCG]
- Kd (free rHDHFR): 0.8 µM
- Ki (chicken liver DHFR; chicken liver DHFR, from secondary plot, read-out: KI as a competitive inhibitor of DHF): 10.3 µM
- inhibition after preincubation and 500-fold dilution (chicken liver DHFR; enzyme 1.65 μM preincubated with 20 to 50 μM inhibitor for 30 min, 500-fold dilution into DHF/NADPH assay): did not produce any measurable inhibition
- Type of inhibition observed (S. maltophilia DHFR): competitive (reversible)
- Ki (S. maltophilia DHFR; competitive respect to DHF, read-out: inhibition constant (Ki)): 4.04 µM
- effect of preincubation of the enzyme with inhibitor (S. maltophilia DHFR; preincubation 30 min, 500-fold dilution): did not showed any effect on enzymatic activity
- Ki [1]: 2 µM
- inhibition of rHDHFR activity [1]: potent inhibitors
- p16 methylation pattern (p16 [2]): changed from methylated to unmethylated
- p16 methylation pattern (p16 [3]): changed from methylated to unmethylated
